In patent US9249086B2, “Carboxylic acid ALA esters” (Photocure ASA, priority 2012, dated 2016):
Structures can show the parent of a compound that is named as a salt.

Columns and labels:
[1] = system: S. aureus strain DSM 20231 (ATCC 12600); test: Dark toxicity in bacteria; format: cell-based, Staphylococcus aureus; conditions: 0.001, 0.1, 1 and 10 mM, plate not illuminated
Method: S. aureus strain DSM 20231 (ATCC 12600). The bacterial strain was grown for 24 hours on heart infusion agar (Difco) at 35-37° C. prior to carrying out the experiment and re-suspended in 20 mM PIPES, pH 7.2-7.4 at a concentration corresponding to a McFarland 0.5 standard (approximately 1-5×10^8 CFU/mL). In order to ensure viable cell cultures and to check the inoculum size and purity, bacterial stocks were made immediately prior to experimentation and the CFU/mL determined in a standard colony assay.
“Dark toxicity”, i.e. the toxic effect of the compounds in the absence of light (and therefore unrelated to PDT effects), can include bacteria cell death and therefore can interfere with the accurate measurement of the PDT effect, which also results in bacterial cell death. Dark toxicity can be measured by determining the toxicity of each compound under the same experimental conditions, but in the absence of light, thereby avoiding any PDT effect. The use of the compounds of the invention under conditions that produce low dark toxicity is advantageous because dark toxicity effects could also include harming or killing non-target cells and interfering with the PDT treatment itself. […]
Dark toxicity was determined as described in the paragraph “PDT-treatment” below, except that the plate was not illuminated. […]

back skin of minipigs = test: In vivo skin fluorescence study in minipigs (FluoDerm); conditions: 15% cream in Unguentum Merck, 0.5 g per site, 1.5, 5 and 12 hours after application, FIG. 1
Method: Compound 1c (carboxymethyl 5-amino-4-oxopentanoate hydrobromide, prepared according to Example 1c) was formulated as a cream in Unguentum Merck (15%, 150 mg/g; 0.56 mmol).
The cream was administered to the back skin of minipigs. Prior to application of the cream, the surrounding skin was cleaned with sterile water and gauze, if necessary. 0.5 g cream was applied to each test site (50 mm in diameter) resulting in a homogenous cream layer and then covered with a dressing (Tegaderm®). The gauze Vet-Flex® was used to keep the dressing in place.
Skin fluorescence at 630 nm was assessed prior to cream application and at 1.5, 5 and 12 hours after cream application using the FluoDerm instrument (DiaMedico ApS, Denmark) according to the manufacturers instructions. The FluoDerm instrument is a hand-held device for objective real-time in vivo measuring of average fluorescence over a circular field with diameter 40 mm. Measurements were electronically corrected for the actual ambient light.

[2] = system: sebaceous glands and epidermis of minipig skin; test: Minipig skin biopsies, fluorescence microscopy; format: in vivo, minipigs; conditions: minipig skin biopsy sections; 15% cream
Method: The cream was administered as described above. At t=0 (i.e. prior to administration of the cream), 1.5, 5 and 12 hours, biopsy samples were taken using a 10 mm biopsy punch (AcuPunch 10 mm, Acuderm, USA). The samples were taken and handled in a minimally illuminated room. Each sample was trimmed free of any subcutaneous fatty tissue and thereafter cut in half. Each sample was then snap frozen in liquid nitrogen, in an aluminium foil bag or similar, and transferred to a −80° C. freezer.
The biopsy samples were sectioned at 10 μm and again care was taken to minimize the surrounding light. When sebaceous glands and epidermis could be identified, a series of 3 consecutive sections was prepared from each sample. The sections were examined within 15 minutes in a Leica DMRXE microscope equipped for both ordinary light microscopy and fluorescence microscopy. Epidermis and sebaceous glands were localized using conventional light microscopy. This was carried out within 5 seconds and then the light source was changed to a mercury lamp/fluorescence with filter set; excitation filter 390-447 nm, beam splitter 455 nm and an emission filter >600 nm. The sections were immediately photographed. Without moving the specimen the light source was changed back to conventional light microscopy and the sections were photographed in exactly the same position as for the fluorescence microscopy. As well as the epidermis and sebaceous glands, the dermis was analysed and if fluorescence was found also photographed. To further investigate localisation of all analyzed structures, the sections were stained with hematoxylin/eosin.
Image analysis was performed using the software program, Image J (version Fiji-win32.exe). With this program, average fluorescence intensity per pixel was measured from the saved images.

[3] = system: Salmonella typhimurium, TA98 and TA100; test: Ames test (mutagenic and photomutagenic potential); format: cell-based; conditions: absence and presence of S-9, absence and presence of visible light
Source text: The Ames test (see B. N. Ames et al, Methods for detecting carcinogens and mutagens with the Salmonella/mammalian-microsome mutagenicity test. Mutation Research 31, 347-364, 1975) is a standard test method approved by the regulatory authorities to detect an ability of a test chemical compound to induce mutation in certain bacterial strains. If a test chemical compound induces such mutations, it cannot be used in a pharmaceutical compound for use in humans.
The objective of this study was to evaluate the mutagenic potential and photomutagenic potential of compound 1c, carboxymethyl 5-amino-4-oxopentanoate hydrobromide (prepared according to Example 1c) by examining its ability to revert two histidine-requiring strains of Salmonella typhimurium, TA98 and TA100, in the absence and presence of a rat liver metabolising system (S-9) and also in the absence and presence of visible light. The latter was assessed since compound 1c is taken up by the bacteria cells and converted into a photosensitiser, which, upon illumination of said cells, might induce mutagenic products.

[4] = system: Rat bladder cells (AY-27); test: Cytotoxicity in rat bladder cells (MTT test); format: cell-based; conditions: AY-27 cells; for Cytotoxicity: 2 hours, MTT test
Method: All experiments were performed in 4-5 replicates under subdued light. For concentrations of compounds 1 mM, the cytotoxicity was assessed with MTT test. Exponentially growing cells were incubated with freshly prepared solution or medium as described above for 2 hours in 96-well plates. After the incubation, the solutions or the medium was discarded and the cells were washed twice with PBS. Then 50 μl of MTT (2.5 mg·ml^−1) was added to 150 μl of RPMI serum-free medium per well and incubated for 3 hours. Absorbance was measured by dissolving formazan crystals with 50 μl of DMSO. The absorbance was normalized to that of control cells.

[5] = system: skin of healthy nude mice; test: In vivo skin fluorescence study in healthy nude mice; conditions: cream in Unguentum Merck, equimolar (16-19%), about 100 μl on back, 6 hours in the dark, excitation 365 and 405 nm, mean of 5 mice
Method: A study was carried out to assess the potential of the compounds of the invention as precursors for photosensitisers for skin application. As such, the compounds of the invention need to be able to penetrate the skin, to be taken up by the cells in the skin and to be converted to photosensitisers. The result of this process can be visualized by exposing the skin to light which excites the photosensitiser molecules and to determine the amount of energy which is released in the form of fluorescence when the excited photosensitiser molecules relax to an energetically lower state.
Compounds 2, 4 and 7 above were formulated as creams in Unguentum Merck. The compounds were tested in equimolar amounts:
3 groups of mice (5 mice/group, each mouse of one group receiving the same cream formulation) were included in the experiment. About 100 μl of cream formulation was applied onto the back of one mouse. The mice were kept in the dark for 6 hours prior to skin fluorescence measurement to avoid photobleaching. For assessment of skin fluorescence, a fluorescence camera (Medeikonos PDD/PDT, Medeikonos AB, Gothenburg, Sweden) was used and images of the back of each mouse were taken. Excitation was carried out at wavelengths of 365 and 405 nm and 2 s illumination time. Each image was calibrated to a fluorescence standard (Uranyl Standard, J&M, Analytische Mess- and Regeltechnik GmbH, Hamburg, Germany) and adjusted for background fluorescence. The mean amount of skin fluorescence in each image was calculated by means of image analyzer-software (MatLab 7.2.0.232, Math-Works, Natick, Mass., USA) and the mean amount of skin fluorescence for each group of mice (5 mice/compound) was calculated.

[6] = system: Rat bladder cells (AY-27); test: PpIX measurements in rat bladder cells; format: cell-based; conditions: AY-27 cells; for PpIX Mean ± SD: 2 hours incubation
Method: Rat bladder cells (AY-27) were grown in the culture medium (RPMI 1640 supplemented with 9% fetal calf serum 1% L-glutamin (200 mM) and 1% penicillin (10 000 UI), streptomycin (10 000 μg·mL^−1). Exponentially growing cells (AY-27) were incubated for 2 hours with freshly prepared solutions of 0.8 mM HAL (which is a tenth of the concentration which is used for bladder cancer […]). Control cells received serum-free medium without any test or reference compounds. After the incubation, the solutions or the medium was discarded and the cells were rinsed 2 times with ice-cooled PBS. PpIX was extracted from cells using an ice-cold lysis extraction mixture, consisting of ethanol/DMSO/acetic acid (80/20/1, v/v/v). The cell lysate was centrifuged (400 g, 10 min, 2° C.), the pellet was grinded and the suspension was sonicated for 15 min before being centrifuged. The fluorescence signal of PpIX was measured with a Perkin-Elmer LS 55 spectrometer (Perkin-Elmer, Beaconsfield, UK) and expressed as a function of the protein content. The fluorescence intensity at 635 nm in each sample was reported on a calibration curve established with PpIX (Sigma-Aldrich, France) diluted in extraction mixture as described above. The PpIX concentration was expressed relative to the protein content. Briefly, a lysis buffer mixture (1 mM EDTA, 1% Triton X-100 and 10 mM Tris-HCl; pH 7.4) was added to frozen cell dishes together with 500 mM PMSF (anti-protease) solution in DMSO. Lysates were kept on ice for 30 minutes and centrifuged at 4° C. for 20 minutes at 15 000 g. The protein content was then measured against a BSA calibration curve by a Biorad DC protein assay kit (Bio-Rad, France) based on a method developed by Lowry.

Compound: NCC(=O)CCC(=O)OCC(=O)O [Compound 1c, carboxymethyl 5-amino-4-oxopentanoate hydrobromide]
- Dark toxicity [1]: No dark toxicity was observed
- Skin fluorescence at 630 nm over time (back skin of minipigs): skin fluorescence increased with time
- Selectivity for sebaceous glands [2]: shows a selectivity for sebaceous glands
- Time after cream application at which fluorescence was also seen in the epidermis [2]: 5 h
- Time after cream application at which fluorescence was seen in the sebaceous glands [2]: 1.5 h
- Induction of mutation or photomutation [3]: did not induce mutation or photomutation

Compound: NCC(=O)CCC(=O)OCCC(=O)O [Compound 4, 2-carboxyethyl 5-amino-4-oxopentanoate hydrobromide]
- Dark toxicity [1]: No dark toxicity was observed
- Cytotoxicity ([4]; 1 mM): 3 % of control
- Cytotoxicity ([4]; 5 mM): 14 % of control
- Cytotoxicity ([4]; 15 mM): 39 % of control
- Cytotoxicity at higher concentration ([4]; concentration higher than 5 mM): cytotoxicity was induced
- Skin fluorescence [5]: 8473 a.u.
- PpIX Mean ± SD ([6]; 1 mM): 45 ± 8 pmoles/mg protein
- PpIX Mean ± SD ([6]; 5 mM): 141 ± 24 pmoles/mg protein
- PpIX Mean ± SD ([6]; 15 mM): 180 ± 94 pmoles/mg protein
- PpIX concentration compared to HAL (0.8 mM) ([6]; compound at 1 mM): significantly lower compared to HAL
- PpIX concentration compared to HAL (0.8 mM) ([6]; compound at 5 mM): About half of the PpIX concentration of HAL
